In patent publication US12187723B2 (BRISTOL-MYERS SQUIBB COMPANY, priority 2019, dated 2025):

Tests used:
human TLR7 = target: T1, human TLR7 (Homo sapiens, UniProt Q9NYK1); experiment: TLR7 inhibition reporter assay (HEK-Blue SEAP); type: cell-based; settings: HEK-Blue cells overexpressing human TLR7, gardiquimod 7.5 μM, 22 hour incubation
T1 construct: host or cells: HEK-Blue cells
T1 sequence (Q9NYK1 27-1049): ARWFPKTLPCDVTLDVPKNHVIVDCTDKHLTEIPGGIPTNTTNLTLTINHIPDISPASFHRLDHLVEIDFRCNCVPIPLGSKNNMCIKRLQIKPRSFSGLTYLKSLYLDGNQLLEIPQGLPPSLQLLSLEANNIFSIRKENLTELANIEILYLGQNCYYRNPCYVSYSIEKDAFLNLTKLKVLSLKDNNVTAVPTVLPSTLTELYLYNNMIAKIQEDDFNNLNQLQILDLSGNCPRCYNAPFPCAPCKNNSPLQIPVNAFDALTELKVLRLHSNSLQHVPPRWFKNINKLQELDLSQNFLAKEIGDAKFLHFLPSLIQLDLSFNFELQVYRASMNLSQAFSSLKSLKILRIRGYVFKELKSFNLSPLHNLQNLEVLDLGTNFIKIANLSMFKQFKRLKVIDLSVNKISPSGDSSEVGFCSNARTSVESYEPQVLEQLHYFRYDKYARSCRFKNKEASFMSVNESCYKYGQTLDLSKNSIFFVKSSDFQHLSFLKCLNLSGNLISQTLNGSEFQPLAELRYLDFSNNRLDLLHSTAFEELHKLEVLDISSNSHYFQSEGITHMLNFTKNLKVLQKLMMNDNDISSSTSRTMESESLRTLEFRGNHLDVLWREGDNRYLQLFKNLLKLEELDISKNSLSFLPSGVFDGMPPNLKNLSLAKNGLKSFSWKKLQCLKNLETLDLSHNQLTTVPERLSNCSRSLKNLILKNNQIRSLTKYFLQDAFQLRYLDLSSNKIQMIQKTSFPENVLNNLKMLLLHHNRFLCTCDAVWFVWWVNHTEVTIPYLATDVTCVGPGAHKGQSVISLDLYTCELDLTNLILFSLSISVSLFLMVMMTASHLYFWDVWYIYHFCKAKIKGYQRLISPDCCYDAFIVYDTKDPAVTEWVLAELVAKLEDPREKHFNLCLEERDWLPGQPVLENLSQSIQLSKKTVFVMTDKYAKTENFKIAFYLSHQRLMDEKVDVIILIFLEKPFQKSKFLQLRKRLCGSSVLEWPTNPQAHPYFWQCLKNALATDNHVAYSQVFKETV
Method in brief: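 In this cell reporter format, test compounds at 0.05 nM-50 μM final incubate 22 h with seeded cells (TLR7 15000, TLR8 20,000 per well). SEAP read-out by HEK-Blue Detection medium yields % inhibition relative to agonist/DMSO and known-inhibitor wells.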

human TLR9 = target: T2, human TLR9 (Homo sapiens, UniProt Q9NR96); experiment: TLR9 inhibition reporter assay (HEK-Blue SEAP); type: cell-based; settings: HEK-Blue cells overexpressing human TLR9, ODN2006 5 nM, 22 hour incubation
T2 construct: host or cells: HEK-Blue cells
T2 sequence (Q9NR96 26-1032): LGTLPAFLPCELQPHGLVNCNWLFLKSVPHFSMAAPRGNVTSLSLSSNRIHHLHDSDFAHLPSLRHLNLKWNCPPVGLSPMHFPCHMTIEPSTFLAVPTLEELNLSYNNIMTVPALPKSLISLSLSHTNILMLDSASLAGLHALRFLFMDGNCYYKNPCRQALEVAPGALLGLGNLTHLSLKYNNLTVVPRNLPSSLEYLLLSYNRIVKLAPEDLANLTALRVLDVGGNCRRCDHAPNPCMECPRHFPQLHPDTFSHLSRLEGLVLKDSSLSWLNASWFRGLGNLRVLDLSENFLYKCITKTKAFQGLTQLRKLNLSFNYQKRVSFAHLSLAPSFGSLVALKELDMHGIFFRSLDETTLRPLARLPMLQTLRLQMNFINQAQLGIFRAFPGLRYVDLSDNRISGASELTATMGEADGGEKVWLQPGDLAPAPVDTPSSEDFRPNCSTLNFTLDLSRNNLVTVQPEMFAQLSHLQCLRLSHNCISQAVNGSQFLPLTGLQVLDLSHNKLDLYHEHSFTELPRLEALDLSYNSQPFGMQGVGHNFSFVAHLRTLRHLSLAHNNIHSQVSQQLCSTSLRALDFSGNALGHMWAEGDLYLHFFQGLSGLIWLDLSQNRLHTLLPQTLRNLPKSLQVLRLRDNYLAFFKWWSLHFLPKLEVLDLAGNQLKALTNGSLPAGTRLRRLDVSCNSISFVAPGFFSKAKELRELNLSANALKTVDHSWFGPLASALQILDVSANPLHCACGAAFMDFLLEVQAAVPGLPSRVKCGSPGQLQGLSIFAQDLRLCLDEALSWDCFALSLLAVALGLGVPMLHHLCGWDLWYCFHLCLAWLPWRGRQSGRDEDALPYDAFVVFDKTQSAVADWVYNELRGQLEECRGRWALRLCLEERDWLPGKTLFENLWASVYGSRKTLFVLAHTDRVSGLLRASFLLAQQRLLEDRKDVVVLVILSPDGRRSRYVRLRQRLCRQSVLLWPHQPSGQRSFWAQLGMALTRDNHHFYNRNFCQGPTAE
Method in brief: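 Dose–response from 0.05 nM to 50 μM was run in HEK-Blue human TLR7, TLR8 and TLR9 reporter cells. After 30 min at room temperature with compound, ligand was added (TLR7 gardiquimod 7.5 μM; TLR8 R848 15.9 μM; TLR9 ODN2006 5 nM) and SEAP measured next day, at 22 h.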

COc1cc(-c2cc3[nH]c(=O)n([C@H]4CC[C@@H](NCC5CCCCC5)CC4)c3cc2C)cn2ncnc12 [Example 66, 1-((1s,4s)-4-((cyclohexylmethyl)amino)cyclohexyl)-5-(8-methoxy-[1,2,4]triazolo[1,5-a]pyridin-6-yl)-6-methyl-1,3-dihydro-2H-benzo[d]imidazol-2-one] was tested, and the IC50 (human TLR7) was 20.8 nM and the IC50 (human TLR9) was 2050 nM.
With COc1cc(-c2cc3[nH]c(=O)n(C4CCN(C)CC4)c3cc2C)cn2ncnc12 [Example 1, 5-(8-methoxy-[1,2,4]triazolo[1,5-a]pyridin-6-yl)-6-methyl-1-(1-methylpiperidin-4-yl)-1,3-dihydro-2H-benzo[d]imidazol-2-one] the IC50 (human TLR7) was 37.9 nM and the IC50 (human TLR9) was 278 nM.
Work on Cc1cc(-c2ccc3c(c2)[nH]c(=O)n3C2CCN(CC(=O)N(C)C)CC2)cn2ncnc12 [Example 90, N,N-dimethyl-2-(4-(5-(8-methyl-[1,2,4]triazolo[1,5-a]pyridin-6-yl)-2-oxo-2,3-dihydro-1H-benzo[d]imidazol-1-yl)piperidin-1-yl)acetamide] yielded an IC50 (human TLR7) of 2160 nM and an IC50 (human TLR9) of 14600 nM.
For COc1cc(-c2cc3[nH]c(=O)n([C@@H]4CCCN(C5COC5)C4)c3cc2C)cn2ncnc12 [Example 72, (R)-5-(8-methoxy-[1,2,4]triazolo[1,5-a]pyridin-6-yl)-6-methyl-1-(1-(oxetan-3-yl)piperidin-3-yl)-1,3-dihydro-2H-benzo[d]imidazol-2-one], the IC50 (human TLR7) was 676 nM and the IC50 (human TLR9) was 45800 nM.
COc1cc(-c2cc3[nH]c(=O)n([C@@H]4CCCN(CC5CC5)C4)c3cc2C)cn2ncnc12 [Example 55, (R)-1-(1-(cyclopropylmethyl)piperidin-3-yl)-5-(8-methoxy-[1,2,4]triazolo[1,5-a]pyridin-6-yl)-6-methyl-1,3-dihydro-2H-benzo[d]imidazol-2-one] showed an IC50 (human TLR7) of 23.1 nM and an IC50 (human TLR9) of 5550 nM.
Work on Cc1cc2c(cc1-c1cc(C)c3ncnn3c1)[nH]c(=O)n2[C@@H]1CCCN(CC2CCOC2)C1 (stereo partly drawn) [Example 43, 6-methyl-5-(8-methyl-[1,2,4]triazolo[1,5-a]pyridin-6-yl)-1-((3R)-1-((tetrahydrofuran-3-yl)methyl)piperidin-3-yl)-1,3-dihydro-2H-benzo[d]imidazol-2-one] yielded an IC50 (human TLR7) of 88.5 nM and an IC50 (human TLR9) of 16500 nM.
COc1cc(-c2ccc3c(c2)[nH]c(=O)n3C2CCN(C)CC2)cn2ncnc12 [Example 74, 5-(8-methoxy-[1,2,4]triazolo[1,5-a]pyridin-6-yl)-1-(1-methylpiperidin-4-yl)-1,3-dihydro-2H-benzo[d]imidazol-2-one] was tested, and the IC50 (human TLR7) was 948 nM and the IC50 (human TLR9) was 365 nM.
COc1cc(-c2cc3[nH]c(=O)n([C@H]4CC[C@@H](N(C)C(C)C)CC4)c3cc2C)cn2ncnc12 [Example 84, 1-((1s,4s)-4-(isopropyl(methyl)amino)cyclohexyl)-5-(8-methoxy-[1,2,4]triazolo[1,5-a]pyridin-6-yl)-6-methyl-1,3-dihydro-2H-benzo[d]imidazol-2-one] gave an IC50 (human TLR7) of 16 nM and an IC50 (human TLR9) of 4780 nM.
COc1cc(-c2cc3[nH]c(=O)n([C@H]4CC[C@@H](NCC(C)C)CC4)c3cc2C)cn2ncnc12 [Example 61, 1-((1s,4s)-4-(isobutylamino)cyclohexyl)-5-(8-methoxy-[1,2,4]triazolo[1,5-a]pyridin-6-yl)-6-methyl-1,3-dihydro-2H-benzo[d]imidazol-2-one] gave an IC50 (human TLR7) of 20.6 nM and an IC50 (human TLR9) of 5510 nM.
COc1cc(-c2ccc3c(c2)[nH]c(=O)n3C2CCN(C(C)C)CC2)cn2ncnc12 [Example 77, 1-(1-isopropylpiperidin-4-yl)-5-(8-methoxy-[1,2,4]triazolo[1,5-a]pyridin-6-yl)-1,3-dihydro-2H-benzo[d]imidazol-2-one] was tested, and the IC50 (human TLR7) was 1530 nM and the IC50 (human TLR9) was 417 nM.
Cc1cc2c(cc1-c1cc(C)c3ncnn3c1)[nH]c(=O)n2[C@@H]1CCCN(Cc2cccnc2)C1 [Example 46, (R)-6-methyl-5-(8-methyl-[1,2,4]triazolo[1,5-a]pyridin-6-yl)-1-(1-(pyridin-3-ylmethyl)piperidin-3-yl)-1,3-dihydro-2H-benzo[d]imidazol-2-one] showed an IC50 (human TLR7) of 172 nM and an IC50 (human TLR9) of 7670 nM.
Cc1cc2c(cc1-c1cc(C)c3ncnn3c1)[nH]c(=O)n2C1CCN(CC(=O)N(C)C)CC1 [Example 91, N,N-dimethyl-2-(4-(6-methyl-5-(8-methyl-[1,2,4]triazolo[1,5-a]pyridin-6-yl)-2-oxo-2,3-dihydro-1H-benzo[d]imidazol-1-yl)piperidin-1-yl)acetamide] gave an IC50 (human TLR7) greater than 3130 nM and an IC50 (human TLR9) greater than 50000 nM.
CCC(C)N[C@H]1CC[C@@H](n2c(=O)[nH]c3cc(-c4cc(C)c5ncnn5c4)c(C)cc32)CC1 (stereo partly shown) [Example 34, 1-((1s,4s)-4-(sec-butylamino)cyclohexyl)-6-methyl-5-(8-methyl-[1,2,4]triazolo[1,5-a]pyridin-6-yl)-1,3-dihydro-2H-benzo[d]imidazol-2-one] gave an IC50 (human TLR7) of 20.5 nM and an IC50 (human TLR9) of 3340 nM.
Compound COc1cc(-c2cc3[nH]c(=O)n([C@@H]4CCCN(C5CCOCC5)C4)c3cc2C)cn2ncnc12 [Example 70, (R)-5-(8-methoxy-[1,2,4]triazolo[1,5-a]pyridin-6-yl)-6-methyl-1-(1-(tetrahydro-2H-pyran-4-yl)piperidin-3-yl)-1,3-dihydro-2H-benzo[d]imidazol-2-one] has an IC50 (human TLR7) of 163 nM and an IC50 (human TLR9) of 17600 nM.
With COc1cc(-c2cc3[nH]c(=O)n([C@H]4CC[C@@H](NC5COC5)CC4)c3cc2C)cn2ncnc12 [Example 59, 5-(8-methoxy-[1,2,4]triazolo[1,5-a]pyridin-6-yl)-6-methyl-1-((1s,4s)-4-(oxetan-3-ylamino)cyclohexyl)-1,3-dihydro-2H-benzo[d]imidazol-2-one] the IC50 (human TLR7) was 67.1 nM and the IC50 (human TLR9) was 7570 nM.
In the case of COc1ncc(CN2CCC[C@H](n3c(=O)[nH]c4cc(-c5cc(C)c6ncnn6c5)c(C)cc43)C2)cn1 [Example 36, (S)-1-(1-((2-methoxypyrimidin-5-yl)methyl)piperidin-3-yl)-6-methyl-5-(8-methyl-[1,2,4]triazolo[1,5-a]pyridin-6-yl)-1,3-dihydro-2H-benzo[d]imidazol-2-one], the IC50 (human TLR7) is reported as 171 nM and the IC50 (human TLR9) is reported as 30600 nM.
CCC(CC)CN1CCC[C@@H](n2c(=O)[nH]c3cc(-c4cc(OC)c5ncnn5c4)c(C)cc32)C1 [Example 73, (R)-1-(1-(2-ethylbutyl)piperidin-3-yl)-5-(8-methoxy-[1,2,4]triazolo[1,5-a]pyridin-6-yl)-6-methyl-1,3-dihydro-2H-benzo[d]imidazol-2-one] showed an IC50 (human TLR7) of 32.4 nM and an IC50 (human TLR9) of 8070 nM.
